Columns and labels:
[1] = test system: U-118; test: Cytotoxicity, MTT assay; assay type: cell-based, human; conditions: U-118, 1 mM, 72 hr, N=3, P<0.001
Method: (§1) Cytotoxicity was evaluated by the MTT assay as described previously ([21], [22]). Cells seeded in 96-well plates were exposed to TMZ at various concentrations for 72 hr (N=3 in each concentration). Curves were fitted using GraphPad PRISM (version 5.0) as a function of a nonlinear one-phase decay (maximum iterations: 1,000, Cl: 95%).

[2] = test system: LN-229; test: Cytotoxicity, MTT assay; assay type: cell-based, human; conditions: LN-229, 1 mM, 72 hr, N=3, P<0.001
Method: as §1

[3] = Body weight in xenograft study; assay type: in vivo, athymic mice; conditions: U-118 xenograft mice, over four weeks of i.p. treatment
Method: (§2) All animal work was performed under a protocol approved by the University of Illinois at Chicago. Athymic mice at 4-5 weeks old were purchased from The Jackson Laboratory. For orthotopic xenografts, GBM cell lines (LN-229 and U-118) were injected into the cerebral cortex. Following anesthesia, cancer cell suspensions at 5x10^5 cells/3μl were stereotactically injected (2 mm lateral to the sagittal suture, 1 mm anterior to the coronal suture, 3 mm depth) using a Koft model 963 stereotactic apparatus with a 31-gauge Hamilton syringe. After injection, the injection site was covered with sterile bone wax. Tumor growth was monitored by MR imaging. For tumor growth study, GBM cell lines (LN-229 and U-118) at 1.0x10^6 cell/mouse were subcutaneously (s.c.) implanted into the right flank of athymic mice ([22]). When tumors reached 3 mm in diameter, animals were randomized into several groups; PBS (control), TMZ 5 mg/kg (25.7 μmol/kg) 5 injections on Day1-5, and p28 10 mg/kg (3.4 μmol/kg) 3 times weekly, i.p. Body weight was determined 3 times weekly. The tumor volume in each animal was assessed by calipers and calculated 3 times weekly.

[4] = test system: LN-229 xenograft; test: Subcutaneous xenograft tumor growth; assay type: in vivo, athymic mice; conditions: LN-229 s.c. xenograft, day 20; TMZ 5 mg/kg Day1-5, p28 10 mg/kg 3 times weekly, i.p.; N=5/group; P<0.001
Method: as §2
(§3) Data processing and statistical analysis were performed using GraphPad Prism. ANOVA test was performed for tumor growth analysis, and P<0.05 was considered statistically significant.

[5] = test system: U-118 xenograft; test: Subcutaneous xenograft tumor growth; assay type: in vivo, athymic mice; conditions: U-118 s.c. xenograft, day 20; TMZ 5 mg/kg, p28 10 mg/kg i.p.; N=7/group
Method: as §2, §3

## Cn1nnc2c(C(N)=O)ncn2c1=O [TMZ, temozolomide]
[1]
  reduction (antiproliferative effect, MTT): 36.6%
[2]
  reduction (antiproliferative effect, MTT): 53.2%
[3]
  body weight: 29.0 ± 0.8 g
[4]
  reduction in tumor growth compared to the PBS control group: 42.4%
[5]
  reduction of tumor growth: 24.5%

From publication PMC9353713, “Tumor-targeting cell-penetrating peptide, p28, for glioblastoma imaging and therapy” (Frontiers in Oncology, 2022)
